Consider ten compounds from publication doi:10.1101/2025.11.03.686257v1 (bioRxiv, 2025).

Series [1] concerns Providencia stuartii. Description: Antibiotic resistance characterization of clinical isolate. As to conditions: University Hospital Pontchaillou. It counts as cell-based.
Series [2] deals with hepatic stellar-like LX2 cells. Description: Peptide-Dylight488 streptavidin cell binding assay by flow cytometry. The format is cell-based, human. As to conditions: peptide-Dylight488 streptavidin complexes. On the technique in general: A flow cytometer gives signals particle by particle.
The subject of series [3] is RLEC-like S3 cells. The description is as above. As to conditions: peptide-Dylight488 streptavidin complexes, established line. It counts as cell-based, rat.
The test system of series [4] is normal human hepatocytes in primary culture. The description is as above. The format is cell-based. As to conditions: peptide-Dylight488 streptavidin complexes.
Series [5] relates to Huh7 HCC cell line. Described as above. As to conditions: peptide-Dylight488 streptavidin complexes. The format is cell-based, human.
The test system of series [6] is Hepa1-6 HCC cell line. The series is described as above. It counts as cell-based, murine. Conditions: peptide-Dylight488 streptavidin complexes.
Series [7] has as its system HEK293T cells. The series is described as above. The format is cell-based, human. Conditions: peptide-Dylight488 streptavidin complexes.
Series [8] concerns HepG2 cells. The description is as above. The format is cell-based, human. As to conditions: peptide-Dylight488 streptavidin complexes.
For series [9], the system named is HepaRG-SP cells. The series is described as above. It counts as cell-based, human. Conditions: P11^Chol-Dylight488 streptavidin complexes.
For series [10], the system named is bipotent progenitor HepaRG cells 3 days after plating. The series is described as above. It counts as cell-based, human. As to conditions: P11^Chol-Dylight488 streptavidin complexes.
Series [11] in a line: Solubility in aqueous solution. The format is physicochemical. Conditions: stock solutions prepared in PBS at 1mM.

As for `CC1(C)S[C@@H]2[C@H](NC(=O)[C@H](N)c3ccccc3)C(=O)N2[C@H]1C(=O)O` [ampicillin], the “antibiotic resistance/sensitivity of the strain” value in series [1] was “resistant”.
Same read-out and setting: then `O=C(N[C@H](CO)[C@H](O)c1ccc([N+](=O)[O-])cc1)C(Cl)Cl` [chloramphenicol], with “sensitive”; and `CC[C@H]1OC(=O)[C@H](C)[C@@H](O[C@H]2C[C@@](C)(OC)[C@@H](O)[C@H](C)O2)[C@H](C)[C@@H](O[C@@H]2O[C@H](C)C[C@H](N(C)C)[C@H]2O)[C@](C)(O)C[C@@H](C)C(=O)[C@H](C)[C@@H](O)[C@]1(C)O` [erythromycin], with “resistant”.
The same measure, in the same setting: to `NC[C@H]1O[C@H](O[C@H]2[C@H](O)[C@@H](O[C@H]3O[C@H](CO)[C@@H](O)[C@H](N)[C@H]3O)[C@H](N)C[C@@H]2N)[C@H](O)[C@@H](O)[C@@H]1O` [kanamycin] belongs “sensitive”.
As to AFLNSNGLPTYSPKIS [Hel-Pyl], the binding to cells result is given as “no binding” in series [2]; “bound” in series [3]; “no binding” in [4]; “no binding” in series [5]; “no binding” in series [6].
As for EYLNSILSYSPSYYWI [E-select], the binding to cells entry in series [7] and in series [8] was “significant binding” each time.
GTLNNIPTY-YWGKGY [Provid-Stu]: the binding to cells result is “no binding” in series [2]; “bound” in series [3]; “no binding” in series [4]; “no binding” in series [5]; “no binding” in [6].
As to TFLNSVPTYSYWGGGS [P11^Chol], the binding to cells entry in [2] was “no binding”; in series [3], “bound”; in [4] it was “no binding”; in [5] it was “no binding”; in [6], “no binding”. Besides, the entries for the “percentage of positive cells” value in series [9] and in [10] (HepaRG D3) were “less than 1%” and roughly 18%, respectively. In [10], the “increase in fluorescence intensity, HepaRG D3 versus HepaRG-SP cells” value is on record as 4 fold. Also, the “solubility in aqueous solution” value in series [11] is reported as “high solubility”.
For amoxicillin + clavulanic acid, the “antibiotic resistance/sensitivity of the strain” value in [1] was “resistant”.
For the compound gentamycin, the “antibiotic resistance/sensitivity of the strain” value in [1] was “sensitive”.
